These results are taken from US20250346569A1, “NEW DERIVATIVES FOR TREATING TRPM3 MEDIATED DISORDERS” (Katholieke Universiteit Leuven, priority 2022, published 2025).

A word on the IC50: it is the midpoint of a concentration-inhibition curve. A low value points to greater potency.

The experiment deals with T1, mouse TRPM3α2 (mTRPM3) ion channel (Mus musculus, UniProt J9SQF3).
T1 construct: expressed in transfected cells; host or cells: flip-in HEK293
T1 sequence (J9SQF3 1-1709 isoform J9SQF3-12): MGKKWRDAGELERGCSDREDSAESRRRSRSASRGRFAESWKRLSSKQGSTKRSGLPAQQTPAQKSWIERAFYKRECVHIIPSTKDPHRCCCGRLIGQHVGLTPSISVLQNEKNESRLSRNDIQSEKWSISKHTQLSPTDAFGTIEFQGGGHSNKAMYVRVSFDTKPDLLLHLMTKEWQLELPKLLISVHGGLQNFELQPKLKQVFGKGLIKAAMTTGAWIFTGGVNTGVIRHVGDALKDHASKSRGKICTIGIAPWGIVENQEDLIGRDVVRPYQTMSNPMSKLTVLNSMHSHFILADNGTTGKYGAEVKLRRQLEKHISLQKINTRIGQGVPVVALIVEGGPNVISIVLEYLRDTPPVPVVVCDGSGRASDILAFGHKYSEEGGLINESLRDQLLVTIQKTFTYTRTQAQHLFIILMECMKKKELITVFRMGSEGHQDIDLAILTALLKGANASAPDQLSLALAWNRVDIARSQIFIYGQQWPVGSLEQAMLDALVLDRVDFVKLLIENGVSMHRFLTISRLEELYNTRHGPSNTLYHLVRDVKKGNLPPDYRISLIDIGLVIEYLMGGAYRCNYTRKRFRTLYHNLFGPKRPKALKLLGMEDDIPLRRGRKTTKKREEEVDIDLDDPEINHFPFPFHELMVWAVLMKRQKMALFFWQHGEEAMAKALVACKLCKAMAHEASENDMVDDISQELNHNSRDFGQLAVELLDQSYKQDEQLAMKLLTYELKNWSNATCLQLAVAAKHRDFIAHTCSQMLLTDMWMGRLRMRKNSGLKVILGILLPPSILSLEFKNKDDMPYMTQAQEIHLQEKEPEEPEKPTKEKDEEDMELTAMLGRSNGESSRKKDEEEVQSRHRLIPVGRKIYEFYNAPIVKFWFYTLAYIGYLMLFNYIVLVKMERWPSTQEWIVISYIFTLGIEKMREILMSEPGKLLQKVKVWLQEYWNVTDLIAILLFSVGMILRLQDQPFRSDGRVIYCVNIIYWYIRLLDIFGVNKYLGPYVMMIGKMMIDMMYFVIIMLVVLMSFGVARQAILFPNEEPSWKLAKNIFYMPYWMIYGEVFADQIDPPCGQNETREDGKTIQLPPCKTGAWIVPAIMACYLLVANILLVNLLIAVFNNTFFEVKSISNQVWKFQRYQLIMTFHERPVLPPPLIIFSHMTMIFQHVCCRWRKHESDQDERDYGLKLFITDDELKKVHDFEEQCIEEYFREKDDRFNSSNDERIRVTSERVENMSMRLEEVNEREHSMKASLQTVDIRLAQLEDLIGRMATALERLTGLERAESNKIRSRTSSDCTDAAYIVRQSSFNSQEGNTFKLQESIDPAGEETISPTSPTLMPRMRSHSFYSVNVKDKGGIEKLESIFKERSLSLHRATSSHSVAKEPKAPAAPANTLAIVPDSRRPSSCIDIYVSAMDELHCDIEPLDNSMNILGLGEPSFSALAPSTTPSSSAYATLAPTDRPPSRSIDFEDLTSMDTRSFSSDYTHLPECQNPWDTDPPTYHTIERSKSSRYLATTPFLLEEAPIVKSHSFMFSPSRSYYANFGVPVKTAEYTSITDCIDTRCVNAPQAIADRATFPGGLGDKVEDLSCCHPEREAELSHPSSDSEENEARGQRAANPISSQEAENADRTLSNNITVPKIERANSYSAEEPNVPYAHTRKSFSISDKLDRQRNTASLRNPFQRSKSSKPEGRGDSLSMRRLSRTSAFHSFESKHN
Put plainly: Monitoring the TRPM3 ion channel driven Ca2+ uptake (Fluo-4 AM assay). Conditions: TRPM3 overexpressing flip-in HEK293 cells, channel stimulated with Pregnenolone sulfate (PS) 50 μM. The class given is cell-based. Here is the method: Monitoring the TRPM3 ion channel driven Ca^2+ uptake.
In order to monitor the inhibition of the mouse TRPM3α2 (mTRPM3) ion channel by the compounds of the invention, a cellular system making use of an mTRPM3alpha2 or hTRPM3 overexpressing cell line (flip-in HEK293) was used. The TRPM3 channel was stimulated/opened with Pregnenolone sulfate (PS) (50 μM) which results in Ca^2+ influx.
For mTRPM3, the intracellular Ca^2+ was measured with a Calcium responsive dye, Fluor-4 AM ester (Invitrogen). Cells were cultured until a confluence of 80-90%, washed with Versene (Invitrogen) and detached from the surface by a short incubation with 0.05% Trypsin (Invitrogen). The trypsination process was stopped by the addition of complete cell culture medium (DMEM, glutamax,10% FCS,NEAA,Pen-Strep). Cells were collected and resuspended in Krebs buffer without Calcium at RT.
Prior the cell seeding (±2000 cells/well into a black, 384 well plate (Greiner)) the diluted compound was added in the assay plate, together with the PS dissolved in Krebs buffer containing Calcium. […] Directly after cell addition the plates were read on an Envision fluorescence reader (Perkin Elmer) by an Excitation of 485 nm and emission at 535 nm.
Channel inhibition was calculated compared to a non-PS stimulated control versus a condition stimulated with PS (50 μM) with vehicle. The ability of the compounds of the invention to inhibit this activity was determined as: Percentage inhibition=[1−((RFU determined for sample with test compound present−RFU determined for sample with positive control inhibitor) divided by (RFU determined in the presence of vehicle−RFU determined for sample with positive control inhibitor))]*100.
The activities of the Example compounds tested are depicted in the table below. The activity ranges A, B and C refer to IC50 values in the Fluo-4 AM assay as follows: “A”: IC50<1 μM; “B”: 1 μM≤IC50≤20 μM and “C”: IC50>20 μM
In turn, `Cc1sc2ccc(OCc3ccccc3)cc2c1C(=O)NCC1CCC(=O)N1` (stereo not shown) [Cpd 102, 5-(benzyloxy)-2-methyl-N-[(5-oxopyrrolidin-2-yl)methyl]-1-benzothiophene-3-carboxamide] had a half-inhibitory concentration (IC50) of 1 to 20 µM.

On to `Cc1ncsc1COc1ccc2sc(C)c(C(=O)NC3CN(C)CC3(F)F)c2c1` (stereo not shown) [Cpd 122, N-(4,4-difluoro-1-methylpyrrolidin-3-yl)-2-methyl-5-[(4-methyl-1,3-thiazol-5-yl)methoxy]-1-benzothiophene-3-carboxamide], for which the IC50 is less than 1 µM.

`Cc1ncsc1COc1ccc2sc(C)c(C(=O)NC3CCNCC3(F)F)c2c1` (single isomer, unassigned) [Cpd 042 - En1, N-(3,3-difluoropiperidin-4-yl)-2-methyl-5-[(4-methyl-1,3-thiazol-5-yl)methoxy]-1-benzothiophene-3-carboxamide] gave a half-maximal inhibitory concentration (IC50) of less than 1 µM.

`Cc1ncsc1COc1ccc2sc(C)c(C(=O)NC3(CO)COC3)c2c1` [Cpd 037, N-[3-(hydroxymethyl)oxetan-3-yl]-2-methyl-5-[(4-methyl-1,3-thiazol-5-yl)methoxy]-1-benzothiophene-3-carboxamide] displayed an IC50 of less than 1 µM.

Regarding `CN(C)CCNC(=O)c1c(C(F)F)sc2ccc(OCc3ccccc3)cc12` [Cpd 116, 5-(benzyloxy)-2-(difluoromethyl)-N-[2-(dimethylamino)ethyl]-1-benzothiophene-3-carboxamide], the IC50 lay in the range of 1 to 20 µM.

`Cc1ncsc1COc1ccc2sc(C)c(C(=O)NC3(CO)CC3)c2c1` [Cpd 034, N-[1-(hydroxymethyl)cyclopropyl]-2-methyl-5-[(4-methyl-1,3-thiazol-5-yl)methoxy]-1-benzothiophene-3-carboxamide] came in with an IC50 of less than 1 µM.

Molecule `Cc1ncsc1COc1ccc2sc(C)c(C(=O)NC3(CO)CCOCC3)c2c1` [Cpd 036, N-[4-(hydroxymethyl)oxan-4-yl]-2-methyl-5-[(4-methyl-1,3-thiazol-5-yl)methoxy]-1-benzothiophene-3-carboxamide] came in with an IC50 of less than 1 µM.

`Cn1ccc(NC(=O)c2c(C(F)F)sc3ccc(OCc4ccccc4)cc23)n1` [Cpd 131, 5-(benzyloxy)-2-(difluoromethyl)-N-(1-methyl-1H-pyrazol-3-yl)-1-benzothiophene-3-carboxamide] registered an IC50 of 1 to 20 µM.

For the molecule `COc1ncccc1COc1ccc2sc(C)c(C(=O)NC3(CO)CCC3)c2c1` [Cpd 143, N-[1-(hydroxymethyl)cyclobutyl]-5-[(2-methoxypyridin-3-yl)methoxy]-2-methyl-1-benzothiophene-3-carboxamide], the IC50 was less than 1 µM.

With `Cc1ncsc1COc1ccc2sc(C)c(C(=O)N[C@@H](CO)C(N)=O)c2c1` [Cpd 027, (2S)-3-hydroxy-2-({2-methyl-5-[(4-methyl-1,3-thiazol-5-yl)methoxy]-1-benzothiophen-3-yl}formamido)propanamide], the half-inhibitory concentration (IC50) was less than 1 µM.

`Cc1ncsc1COc1ccc2sc(C)c(C(=O)NC3CC(F)(F)C3)c2c1` [Cpd 039, N-(3,3-difluorocyclobutyl)-2-methyl-5-[(4-methyl-1,3-thiazol-5-yl)methoxy]-1-benzothiophene-3-carboxamide] returned an IC50 of less than 1 µM.

In turn, `COc1ncccc1COc1ccc2sc(C)c(C(=O)NC3(CO)CCOCC3)c2c1` [Cpd 144, N-[4-(hydroxymethyl)oxan-4-yl]-5-[(2-methoxypyridin-3-yl)methoxy]-2-methyl-1-benzothiophene-3-carboxamide] registered a half-maximal inhibitory concentration (IC50) of 1 to 20 µM.

Molecule `Cc1ncsc1COc1ccc2sc(C)c(C(=O)N[C@H](CO)C(N)=O)c2c1` [Cpd 029, (2R)-3-hydroxy-2-({2-methyl-5-[(4-methyl-1,3-thiazol-5-yl)methoxy]-1-benzothiophen-3-yl}formamido)propanamide] returned an IC50 of less than 1 µM.

With `Cc1sc2ccc(OCc3ccccc3)cc2c1C(=O)NC1CC(F)(F)C1` [Cpd 089, 5-(benzyloxy)-N-(3,3-difluorocyclobutyl)-2-methyl-1-benzothiophene-3-carboxamide], the IC50 was more than 20 µM.

Molecule `Cc1sc2ccc(OCC3COC3)cc2c1C(=O)NC(C)(CO)C(N)=O` (single isomer, unassigned) [Cpd 068 - En1, 3-hydroxy-2-methyl-2-({2-methyl-5-[(oxetan-3-yl)methoxy]-1-benzothiophen-3-yl}formamido)propanamide] showed an IC50 of more than 20 µM.

Molecule `Cc1sc2ccc(OCc3ccccc3F)cc2c1C(=O)NC1(CO)CC1` [Cpd 074, 5-[(2-fluorophenyl)methoxy]-N-[1-(hydroxymethyl)cyclopropyl]-2-methyl-1-benzothiophene-3-carboxamide] had an IC50 of less than 1 µM.

Regarding `Cc1sc2ccc(OCc3ccccn3)cc2c1C(=O)NC1(CO)CC1` [Cpd 075, N-[1-(hydroxymethyl)cyclopropyl]-2-methyl-5-[(pyridin-2-yl)methoxy]-1-benzothiophene-3-carboxamide], the IC50 is 1 to 20 µM.

Consider `O=C(NC1CCNC1=O)c1c(C(F)F)sc2ccc(OCc3ccccc3)cc12` (stereo not shown) [Cpd 146, 5-(benzyloxy)-2-(difluoromethyl)-N-(2-oxopyrrolidin-3-yl)-1-benzothiophene-3-carboxamide], for which the IC50 was less than 1 µM.

With `O=C1CCC(CNC(=O)c2c(C(F)F)sc3ccc(OCc4ccccc4)cc23)N1` (stereo not shown) [Cpd 148, 5-(benzyloxy)-2-(difluoromethyl)-N-[(5-oxopyrrolidin-2-yl)methyl]-1-benzothiophene-3-carboxamide], the IC50 is more than 20 µM.

As for `Cc1ncc(COc2ccc3sc(C)c(C(=O)NC(C)(CO)C(N)=O)c3c2)s1` (single isomer, unassigned) [Cpd 019 - En1, 3-hydroxy-2-methyl-2-({2-methyl-5-[(2-methyl-1,3-thiazol-5-yl)methoxy]-1-benzothiophen-3-yl}formamido)propanamide], the half-inhibitory concentration (IC50) is less than 1 µM.

Turning to `Cc1sc2ccc(OCc3ccccc3)cc2c1C(=O)O` [Cpd 108, 5-(benzyloxy)-2-methyl-1-benzothiophene-3-carboxylic acid], the IC50 is less than 1 µM.

In turn, `Cc1nc(COc2ccc3sc(C)c(C(=O)NC(C)(CO)C(N)=O)c3c2)cs1` (single isomer, unassigned) [Cpd 015 - En1, 3-hydroxy-2-methyl-2-({2-methyl-5-[(2-methyl-1,3-thiazol-4-yl)methoxy]-1-benzothiophen-3-yl}formamido)propanamide] showed a concentration for half-maximal inhibition (IC50) of less than 1 µM.

As to `Cc1ncsc1COc1ccc2sc(C)c(C(=O)N[C@@H]3CCN(CCO)C3=O)c2c1` [Cpd 028, N-[(3R)-1-(2-hydroxyethyl)-2-oxopyrrolidin-3-yl]-2-methyl-5-[(4-methyl-1,3-thiazol-5-yl)methoxy]-1-benzothiophene-3-carboxamide], the IC50 was 1 to 20 µM.

For `Cc1sc2ccc(OCc3cccnc3C(F)(F)F)cc2c1C(=O)NC(C)(C)C(N)=O` [Cpd 065, 2-methyl-2-[(2-methyl-5-{[2-(trifluoromethyl)pyridin-3-yl]methoxy}-1-benzothiophen-3-yl)formamido]propanamide], the 50% inhibitory concentration (IC50) is less than 1 µM.

`Cc1sc2ccc(OCc3ccccc3)cc2c1C(=O)NC(C)(C)C(N)=O` [Cpd 062, 2-{[5-(benzyloxy)-2-methyl-1-benzothiophen-3-yl]formamido}-2-methylpropanamide] yielded an IC50 of less than 1 µM.

In the case of `Cc1sc2ccc(OCC3CCOCC3)cc2c1C(=O)NC(C)(CO)C(N)=O` (single isomer, unassigned) [Cpd 067 - En2, 3-hydroxy-2-methyl-2-({2-methyl-5-[(oxan-4-yl)methoxy]-1-benzothiophen-3-yl}formamido)propanamide], the IC50 lay within 1 to 20 µM.

In turn, `Cc1sc2ccc(OCc3ccccn3)cc2c1C(=O)N[C@H](C)C(N)=O` [Cpd 003, (2R)-2-({2-methyl-5-[(pyridin-2-yl)methoxy]-1-benzothiophen-3-yl}formamido)propanamide] returned a half-maximal inhibitory concentration (IC50) of less than 1 µM.

Regarding `Cc1sc2ccc(OCc3cccnc3C(F)(F)F)cc2c1C(=O)NC1CCN(C)CC1` [Cpd 129, 2-methyl-N-(1-methylpiperidin-4-yl)-5-{[2-(trifluoromethyl)pyridin-3-yl]methoxy}-1-benzothiophene-3-carboxamide], the 50% inhibitory concentration (IC50) is less than 1 µM.

With `Cc1sc2ccc(OCc3cccnc3O)cc2c1C(=O)NC1(CO)CCC1` [Cpd 079, N-[1-(hydroxymethyl)cyclobutyl]-5-[(2-hydroxypyridin-3-yl)methoxy]-2-methyl-1-benzothiophene-3-carboxamide], the IC50 was in the range of 1 to 20 µM.

`Cc1ncsc1COc1ccc2sc(C)c(C(=O)NC3CCN(C)CC3)c2c1` [Cpd 130, 2-methyl-5-[(4-methyl-1,3-thiazol-5-yl)methoxy]-N-(1-methylpiperidin-4-yl)-1-benzothiophene-3-carboxamide]: the IC50 was 1 to 20 µM.

`Cc1sc2ccc(OCc3ccccn3)cc2c1C(=O)NC1(C(N)=O)COC1` [Cpd 088, 3-{2-methyl-5-[(pyridin-2-yl)methoxy]-1-benzothiophene-3-amido}oxetane-3-carboxamide]: the 50% inhibitory concentration (IC50) is less than 1 µM.
